± gives the expanded uncertainty stated by the source.
Test: not given
Conditions: Crystal; DTA

Row | Normal melting temperature [°C] | SMILES
1 | 189.92 ± 0.39 | NS(=O)(=O)c1ccccc1[N+](=O)[O-] [2-nitrobenzenesulfonamide]
2 | 164.00 ± 0.39 | NS(=O)(=O)c1cccc([N+](=O)[O-])c1 [3-nitrobenzenesulfonamide]
3 | 180.46 ± 0.39 | NS(=O)(=O)c1ccc([N+](=O)[O-])cc1 [4-nitrobenzenesulfonamide]

Test: Molar enthalpy of transition or fusion
Conditions: Crystal; DSC

Row | Molar enthalpy of transition or fusion [kcal/mol] | SMILES
4 | 6.77 ± 0.155 | NS(=O)(=O)c1ccccc1[N+](=O)[O-] [2-nitrobenzenesulfonamide]
5 | 7.52 ± 0.177 | NS(=O)(=O)c1cccc([N+](=O)[O-])c1 [3-nitrobenzenesulfonamide]
6 | 7.12 ± 0.155 | NS(=O)(=O)c1ccc([N+](=O)[O-])cc1 [4-nitrobenzenesulfonamide]

Test: molar heat capacity at constant pressure
Conditions: 298.15 K; 101.33 kPa; Liquid; Small sample (50 mg) DSC

Row | molar heat capacity at constant pressure [J/K/mol] | SMILES
7 | 179.54 ± 8.5 | NS(=O)(=O)c1ccccc1[N+](=O)[O-] [2-nitrobenzenesulfonamide]
8 | 199.96 ± 8.5 | NS(=O)(=O)c1cccc([N+](=O)[O-])c1 [3-nitrobenzenesulfonamide]
9 | 219.98 ± 13 | NS(=O)(=O)c1ccc([N+](=O)[O-])cc1 [4-nitrobenzenesulfonamide]
